Measured values taken from patent publication US12527782B2, “Use of hexokinase 2/mitochondria-detaching compounds for treating hexokinase-2 (HK2)-expressing cancers” (Vidac Pharma Ltd., priority 2016, dated 2026).

How the values were obtained:
[1] = tested on: Head & Neck HNXF 908; assay: CFA, HNXF 908; assay type: cell-based, human; conditions: PDX/CFA
Protocol: (§1) CFA was performed by Charles River Laboratories (Freiburg, Germany) in 96-well plate format according to a modified two-layer soft agar assay. The origin of the tumor xenografts has been described (Fiebig et al. 1989, incorporated herein by reference). The list of tumors used in this study is detailed in Table 1.

[2] = target: T1, VDAC1/HK2 complex (Homo sapiens, UniProt P52789); assay: Microscale Thermophoresis (MST) dissociation of VDAC1/HK2 complex; assay type: binding; conditions: cell-free MST; HK2 pre-incubated with 1.5 μM VDAC1
T1 construct: host or cells: E. coli (HK2); sheep liver mitochondria (VDAC1)
T1 sequence (P52789 whole entry, one chain of several): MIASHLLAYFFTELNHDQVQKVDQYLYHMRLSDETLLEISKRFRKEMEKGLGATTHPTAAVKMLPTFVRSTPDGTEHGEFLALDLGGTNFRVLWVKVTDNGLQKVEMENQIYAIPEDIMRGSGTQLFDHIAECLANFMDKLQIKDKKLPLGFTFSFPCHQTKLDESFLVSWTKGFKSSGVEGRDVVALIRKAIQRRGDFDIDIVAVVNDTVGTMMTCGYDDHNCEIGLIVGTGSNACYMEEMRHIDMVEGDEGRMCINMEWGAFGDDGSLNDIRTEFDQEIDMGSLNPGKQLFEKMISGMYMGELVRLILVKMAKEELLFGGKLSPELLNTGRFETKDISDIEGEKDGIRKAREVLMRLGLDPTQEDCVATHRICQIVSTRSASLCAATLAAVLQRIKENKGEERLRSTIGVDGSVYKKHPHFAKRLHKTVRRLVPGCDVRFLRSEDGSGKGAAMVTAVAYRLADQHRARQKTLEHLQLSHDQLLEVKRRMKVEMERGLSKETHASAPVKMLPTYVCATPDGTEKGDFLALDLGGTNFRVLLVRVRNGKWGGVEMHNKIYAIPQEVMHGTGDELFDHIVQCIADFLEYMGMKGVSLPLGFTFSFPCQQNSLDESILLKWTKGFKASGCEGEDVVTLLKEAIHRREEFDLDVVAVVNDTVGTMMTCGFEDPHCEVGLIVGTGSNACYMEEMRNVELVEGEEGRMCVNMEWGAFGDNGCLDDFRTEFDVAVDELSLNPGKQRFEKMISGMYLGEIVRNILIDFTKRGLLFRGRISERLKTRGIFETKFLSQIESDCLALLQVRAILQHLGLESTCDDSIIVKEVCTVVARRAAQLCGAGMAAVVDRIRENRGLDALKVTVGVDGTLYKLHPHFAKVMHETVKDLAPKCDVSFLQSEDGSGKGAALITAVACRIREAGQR
Protocol: A431 (human skin SCC), HT-297.T (human AK), and HaCaT transformed normal keratinocyte cell lines were from ATCC (Manassas, VA) and were maintained in DMEM supplemented with 10% FCS, 4 mM L-Gln, 1 mM sodium pyruvate, 100 U/mL penicillin, 1 μg/mL streptomycin. Human HK1 and HK2 plasmids were purchased from Addgene (Cambridge, MA) and were purified from E. Coli. VDAC1 was purified from sheep liver mitochondria as described (Arbel et al. 2012, incorporated herein by reference). Human skin tissue microarray (SK208 and SK 805) were purchased from US Biomax Inc. (Rockville, MD).
Studies were conducted on Nanotemper Monolith NT.115 (Munich, Germany). HK1 and HK2 were labeled using Monolith™ NT.115 Protein Labeling Kit BLUE-NHS. As a preliminary study to form the VDAC1-HK complexes, various concentrations of VDAC1 were added to 67 nM HK1 or 71 nM HK2. The preferred VDAC1 concentration was determined to be 1.5 μM. For dissociation studies, HKs were pre-incubated with VDAC1 for 10 minutes and various concentrations of Formula C were added for an additional 10 minutes. MST default parameters were used and analysis was with Nanotemper analysis software. […]
The activity of Formula C in a cell-free assay was evaluated using Microscale Thermophoresis (MST) analysis, which is based on altered movement of a protein in a temperature gradient when bound to other molecules. […]

[3] = tested on: Cutanous T cell lymphoma Hut-78; assay: XTT cell viability assay, Hut-78; assay type: cell-based, human; conditions: Cell line/XTT
Protocol: For XTT assays, cells were plated in 96-well plates (5,000 cells per well) for 24 hours. Cells were then incubated with different concentrations of Formula C in triplicates for 72 hr in DMEM supplemented with 0.5% FCS and 5 mM Glucose. Cell viability was evaluated using 2,3-bis-(2-methoxy-4-nitro-5-sulfophenyl)-2H-tetrazolium-5-carboxanilide (XTT)-based colorimetric assay kit (Biological Industries Ltd., Kibbutz Beit-Haemek, Israel). The optical density was measured by an Infinite 200 ELISA reader at 450 nm and reference was measured at 630 nm (Tecan, Männedorf, Switzerland).

[4] = tested on: Lung (SCLC) LXFS NCI-H82; assay: CFA, LXFS NCI-H82; assay type: cell-based, human; conditions: Cell line/CFA
Protocol: as §1

[5] = tested on: Colon CXF 280; assay: CFA, CXF 280; assay type: cell-based, human; conditions: PDX/CFA
Protocol: as §1

[6] = tested on: Breast MAXF 857; assay: CFA, MAXF 857; assay type: cell-based, human; conditions: PDX/CFA
Protocol: as §1

[7] = tested on: CTCL cell line MJ; assay: PrestoBlue cell viability, MJ; assay type: cell-based, human; conditions: 72 hours, read-out: absolute IC50, cell viability
Protocol: Cutaneous T-cell lymphoma (CTCL) cell lines MJ and Hut78 were purchased from ATCC (CRL-8294, and TIB-161, respectively). Cells were grown in Iscove's Modified Dulbecco's Media supplemented with 2 mM L-glutamine, 10% fetal bovine serum, 100 U/mL of penicillin and 0.1 mg/mL of streptomycin.
Cells (1-2×10^4) were seeded in 96-well plates and treated with Formula C. Cell viability was determined 72 hours later using PrestoBlue reagent according to manufacturer's instruction (Life Technologies). The percentage of viability was expressed according to the fluorescence emitted by Formula C-treated cells compared to DMSO-treated control cells. The florescence emission values at 590 nm were measured with the plate-reader Spark 10M—multimode microplate reader (TECAN).

[8] = tested on: Prostate PRXF MRI-H-1579; assay: CFA, PRXF MRI-H-1579; assay type: cell-based, human; conditions: Cell line/CFA
Protocol: as §1

[9] = tested on: panel of 57 patient-derived tumors and cancer cell lines; assay: CFA panel of 57 patient-derived tumors and cancer cell lines; assay type: cell-based, human
Protocol: as §1

[10] = Skin irritation in naïve SKH-1 mice; assay type: in vivo, mouse; conditions: skin of naïve SKH-1 mice
[11] = target: T2, HK1 association with the mitochondria (Homo sapiens, UniProt P19367); assay: Western Blot of mitochondrial fraction, HK1 in A431 cells; assay type: cell-based; conditions: similar experimental setup, data not shown
T2 construct: human skin SCC A431 cells (which express both HK1 and HK2); endogenous in cells; host or cells: A431
T2 sequence (P19367 whole entry): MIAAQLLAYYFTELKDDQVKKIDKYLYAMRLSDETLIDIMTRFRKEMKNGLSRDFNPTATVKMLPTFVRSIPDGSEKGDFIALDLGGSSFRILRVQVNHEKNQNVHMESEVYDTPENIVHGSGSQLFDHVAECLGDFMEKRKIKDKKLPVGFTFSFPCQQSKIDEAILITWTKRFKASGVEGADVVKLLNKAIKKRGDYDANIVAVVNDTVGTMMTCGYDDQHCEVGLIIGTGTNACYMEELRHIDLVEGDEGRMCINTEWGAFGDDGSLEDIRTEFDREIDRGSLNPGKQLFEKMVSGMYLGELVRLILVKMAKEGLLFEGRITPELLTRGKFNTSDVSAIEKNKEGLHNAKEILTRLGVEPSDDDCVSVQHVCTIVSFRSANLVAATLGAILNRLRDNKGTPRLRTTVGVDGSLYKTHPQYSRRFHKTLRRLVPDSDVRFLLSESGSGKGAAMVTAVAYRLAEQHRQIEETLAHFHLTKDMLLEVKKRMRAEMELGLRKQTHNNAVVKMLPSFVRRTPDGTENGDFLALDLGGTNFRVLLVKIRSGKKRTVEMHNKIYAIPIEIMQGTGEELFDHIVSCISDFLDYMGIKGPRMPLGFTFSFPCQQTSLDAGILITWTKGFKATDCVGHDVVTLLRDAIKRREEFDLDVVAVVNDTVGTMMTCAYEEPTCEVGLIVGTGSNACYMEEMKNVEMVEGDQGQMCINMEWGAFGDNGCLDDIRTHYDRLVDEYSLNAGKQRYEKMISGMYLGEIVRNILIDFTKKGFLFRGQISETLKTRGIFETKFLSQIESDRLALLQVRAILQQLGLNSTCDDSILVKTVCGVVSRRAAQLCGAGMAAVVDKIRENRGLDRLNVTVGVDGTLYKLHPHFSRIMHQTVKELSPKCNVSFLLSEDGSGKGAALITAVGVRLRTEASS
Protocol: A431 cells were treated for 2 hours at 37° C. with various concentrations of Formula C in medium without FCS and 2 mM L-Gln. Mitochondria were isolated using Mitochondria Isolation Kit (Thermo Fisher Scientific, Rockford, IL) followed by a WB. Semi-quantification of the WB was done with Imagequant TL software v8.1 (GE healthcare Life Sciences, Little Chalfont, United Kingdom). TIM22 was used as a loading control for mitochondria. Cyclophilin A (PPIA) was used as a cytosolic marker.
Antibodies used: anti-rabbit HK1 (C-20245) and HK2 (C-28765) from CST (Danvers, MA), anti-rabbit PPIA (ab41684, Abcam), anti-rabbit TIM22 (14927-1-AP, Proteintech Group Inc., Rosemont, IL), anti-rabbit Cytochrome C (PA1118, Boster Biological Technology, Pleasanton, CA). Detection was performed using secondary antibodies: peroxidase-conjugated Affinipure goat anti-rabbit IgG (H+L) or goat anti-mouse IgG (H+L) (111-035-003 and 115-035-003, Jackson ImmunoResearch, West Grove, PA), and development was using the ECL kit WesternBright™ ECL (K-12045-D10, Advansta, Menlo Park, California, USA).

[12] = tested on: Kidney RXF 1220; assay: CFA, RXF 1220; assay type: cell-based, human; conditions: PDX/CFA
Protocol: as §1

[13] = tested on: Colon CXF 243; assay: Colony forming assay (CFA), CXF 243; assay type: cell-based, human; conditions: PDX/CFA
Protocol: as §1

[14] = tested on: Lung (NSCLC, epidermoid) LXFE 690; assay: CFA, LXFE 690; assay type: cell-based, human; conditions: PDX/CFA
Protocol: as §1

[15] = tested on: Lung (NSCLC, adeno) LXFA 629; assay: CFA, LXFA 629; assay type: cell-based, human; conditions: PDX/CFA
Protocol: as §1

CC/C=C\CC1C(=O)CCC1CC(=O)Oc1cccc2cccnc12 (stereo not drawn) [Formula C]
IC50 [1]: 3880 nM | IC50 [2]: 92 nM | IC50 [3]: 1060 nM | IC50 [4]: 1770 nM | IC50 [5]: 5440 nM | IC50 [6]: 1560 nM | IC50 [7]: 1770 nM | IC50 [8]: 1660 nM | share of tested cancer types with strong anti-proliferation effect (IC50<2 uM) [9]: 70% | skin irritation [10]: did not cause any irritation | HK1 association with the mitochondria [11]: not affected | IC50 [12]: 6330 nM | IC50 [13]: 1760 nM | IC50 [14]: 6820 nM | IC50 [15]: 1380 nM
